Values quoted from earlier work in patent publication US5545628A, “Pharmaceutical composition containing fenofibrate” (priority 1995, dated 1996).

Row | absorption as metabolite (oral) | excretion (fenofibric acid, mainly as the glucuronide conjugate) | SMILES
1 | absorbed as fenofibric acid |  | CC(C)OC(=O)C(C)(C)Oc1ccc(C(=O)c2ccc(Cl)cc2)cc1 [Fenofibrate, P-(4-chlorobenzoyl)-phenoxy isobutyrate isopropyl ester]
2 |  | excreted predominantly in the urine | CC(C)(Oc1ccc(C(=O)c2ccc(Cl)cc2)cc1)C(=O)O [Fenofibric acid]
